Test results reported in paper PMC4992889, “The viral capping enzyme nsP1: a novel target for the inhibition of chikungunya virus infection” (Scientific Reports, 2016).
Like-named read-outs stand apart in the source and are kept apart here.

Key:
[1] = system: CHIKV strain 899; assay: CPE reduction antiviral assay, CHIKV 899 in Vero A cells (MTS/PMS); assay type: cell-based; details: Chikungunya virus
[2] = system: MADTP-314res CHIKV 899 variant; assay: microbe, parasite or virus in culture; assay type: cell-based, Chikungunya virus; details: for EC50: Chikungunya virus, read-out: EC50 MADTP-314res variant 3 (resistance selection)
[3] = system: CHIKV; assay: Time-of-addition study, CHIKV RNA reduction; assay type: cell-based, Chikungunya virus; details: for reduction in CHIKV RNA: added 6 h post infection, assessed at 24 h post infection
[4] = system: CHIKV pseudoparticles (CHIKVpp); assay type: cell-based, Chikungunya virus
[5] = system: CHIKV; details: cited from earlier work
[6] = system: CHIKV; details: clinical studies; cited from earlier work
[7] = system: CHIKV Venturini (Italy 2008); assay: Viral RNA reduction (qRT-PCR) antiviral assay in Vero E6 cells; assay type: cell-based; details: Chikungunya virus, Vero C1008, read-out: EC50, in vitro antiviral activity against CHIKV Venturini (Italy 2008)
[8] = system: CHIKV Congo 95 (2011); assay: as above; assay type: cell-based; details: Chikungunya virus, Vero C1008, read-out: EC50, in vitro antiviral activity against CHIKV Congo 95 (2011)
[9] = system: VEEV TC83; assay: microbe, parasite or virus in culture; assay type: cell-based; details: Venezuelan equine encephalitis virus, Vero C1008, read-out: EC50, in vitro antiviral activity against VEEV TC83
[10] = system: WT CHIKV LS3; assay: microbe, parasite or virus in culture; assay type: cell-based, Chikungunya virus; details: for EC50: Chikungunya virus, Vero C1008, read-out: EC50 WT LS3 (reverse genetics)
[11] = system: translation of incoming capped CHIKV RNA; assay type: cell-based, Chikungunya virus; details: 250 μM
[12] = system: CHIKV RNA synthesis; assay: Metabolic labeling with 3H-uridine of CHIKV RNA in infected Vero E6 cells; assay type: cell-based, Chikungunya virus; details: 50–250 μM
[13] = target: CHIKV replication/transcription complexes (RTCs) (Chikungunya virus, UniProt Q8JUX6); assay: In vitro RNA synthesis assay with isolated CHIKV replication/transcription complexes (32P-CTP incorporation); assay type: biochemical; details: 250 μM
CHIKV replication/transcription complexes (RTCs), sequence (Q8JUX6 1864-2474 limits assumed): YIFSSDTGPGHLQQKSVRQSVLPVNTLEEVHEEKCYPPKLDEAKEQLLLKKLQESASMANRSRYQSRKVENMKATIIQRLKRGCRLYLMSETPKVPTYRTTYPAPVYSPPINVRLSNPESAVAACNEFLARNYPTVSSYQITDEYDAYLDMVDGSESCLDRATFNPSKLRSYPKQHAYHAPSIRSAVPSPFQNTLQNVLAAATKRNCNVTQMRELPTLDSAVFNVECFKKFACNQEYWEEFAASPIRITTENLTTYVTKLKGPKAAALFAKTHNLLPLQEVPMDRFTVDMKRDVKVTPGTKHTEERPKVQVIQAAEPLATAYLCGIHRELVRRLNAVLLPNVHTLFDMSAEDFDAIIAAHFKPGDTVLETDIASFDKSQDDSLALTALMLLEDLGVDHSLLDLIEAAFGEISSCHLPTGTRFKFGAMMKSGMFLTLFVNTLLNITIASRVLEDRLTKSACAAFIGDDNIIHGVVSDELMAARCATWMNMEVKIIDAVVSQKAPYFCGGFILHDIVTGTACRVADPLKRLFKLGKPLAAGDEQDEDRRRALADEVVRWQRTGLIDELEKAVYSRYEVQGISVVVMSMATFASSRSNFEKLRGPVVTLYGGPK
CHIKV replication/transcription complexes (RTCs), sequence (Q8JUX6 1-535 partner limits assumed): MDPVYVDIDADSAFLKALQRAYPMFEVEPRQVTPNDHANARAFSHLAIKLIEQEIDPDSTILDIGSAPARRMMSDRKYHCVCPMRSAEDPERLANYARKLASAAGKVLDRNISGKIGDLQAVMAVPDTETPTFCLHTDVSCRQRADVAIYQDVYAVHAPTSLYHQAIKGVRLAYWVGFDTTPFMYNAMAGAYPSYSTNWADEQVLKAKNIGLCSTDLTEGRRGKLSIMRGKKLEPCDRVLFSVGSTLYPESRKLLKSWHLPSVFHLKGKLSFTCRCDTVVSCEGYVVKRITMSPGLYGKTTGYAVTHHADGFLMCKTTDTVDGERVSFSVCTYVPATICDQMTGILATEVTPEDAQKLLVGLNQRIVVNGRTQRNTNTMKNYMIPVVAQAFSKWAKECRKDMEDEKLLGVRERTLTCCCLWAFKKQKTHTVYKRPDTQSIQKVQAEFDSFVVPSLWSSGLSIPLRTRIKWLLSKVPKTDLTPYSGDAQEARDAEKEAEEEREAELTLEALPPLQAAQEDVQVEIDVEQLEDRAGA
CHIKV replication/transcription complexes (RTCs), sequence (Q8JUX6 536-1333 partner limits assumed): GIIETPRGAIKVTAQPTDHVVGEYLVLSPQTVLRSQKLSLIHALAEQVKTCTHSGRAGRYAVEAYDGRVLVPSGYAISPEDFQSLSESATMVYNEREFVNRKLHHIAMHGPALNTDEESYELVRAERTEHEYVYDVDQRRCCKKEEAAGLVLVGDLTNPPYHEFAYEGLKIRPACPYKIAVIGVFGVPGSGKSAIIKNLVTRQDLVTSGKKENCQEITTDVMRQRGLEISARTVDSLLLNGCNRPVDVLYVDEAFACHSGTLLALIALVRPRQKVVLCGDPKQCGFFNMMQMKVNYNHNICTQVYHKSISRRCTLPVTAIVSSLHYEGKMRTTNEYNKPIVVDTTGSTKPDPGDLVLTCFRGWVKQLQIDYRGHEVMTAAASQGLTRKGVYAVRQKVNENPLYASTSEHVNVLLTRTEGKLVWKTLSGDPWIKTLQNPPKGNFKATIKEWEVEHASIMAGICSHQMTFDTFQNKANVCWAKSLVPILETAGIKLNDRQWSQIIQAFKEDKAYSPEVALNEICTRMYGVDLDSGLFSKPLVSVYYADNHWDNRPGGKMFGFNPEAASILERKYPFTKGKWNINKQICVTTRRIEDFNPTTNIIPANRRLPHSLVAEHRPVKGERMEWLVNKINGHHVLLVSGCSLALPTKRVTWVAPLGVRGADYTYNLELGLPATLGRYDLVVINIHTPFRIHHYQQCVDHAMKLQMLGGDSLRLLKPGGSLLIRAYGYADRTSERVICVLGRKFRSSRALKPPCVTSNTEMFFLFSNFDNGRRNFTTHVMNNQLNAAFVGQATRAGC

[14] = target: T1, VEEV nsP1 (Venezuelan equine encephalitis virus, UniProt P36328); assay: biochemical
T1 sequence (P36328 1-535 limits assumed): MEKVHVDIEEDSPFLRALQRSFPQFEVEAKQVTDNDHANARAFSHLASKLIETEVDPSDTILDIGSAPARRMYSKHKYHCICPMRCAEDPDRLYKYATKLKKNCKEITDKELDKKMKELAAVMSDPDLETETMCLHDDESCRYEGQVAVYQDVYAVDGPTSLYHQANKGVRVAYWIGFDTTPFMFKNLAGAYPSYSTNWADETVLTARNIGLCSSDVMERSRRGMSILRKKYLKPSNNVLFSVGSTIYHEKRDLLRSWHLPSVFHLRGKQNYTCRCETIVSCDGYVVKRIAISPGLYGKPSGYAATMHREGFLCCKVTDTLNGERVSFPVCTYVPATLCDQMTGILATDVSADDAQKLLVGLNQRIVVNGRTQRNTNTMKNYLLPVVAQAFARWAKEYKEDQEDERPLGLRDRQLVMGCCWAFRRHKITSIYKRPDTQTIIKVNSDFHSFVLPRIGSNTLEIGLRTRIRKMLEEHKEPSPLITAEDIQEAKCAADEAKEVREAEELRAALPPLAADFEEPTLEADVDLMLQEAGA

[15] = in vitro; details: African green monkey
[16] = target: T1, VEEV nsP1; assay: biochemical; assay type: biochemical
[17] = system: CHIKV strain 899; details: cited from earlier work
[18] = system: Vero cells; details: cited from earlier work
[19] = system: CHIKV; details: cited from earlier work; remark: listed apart in the source
[20] = read-out: EC50 WT 899 (resistance selection)
[21] = 120 h, read-out: EC50, in vitro antiviral activity against CHIKV 899 (lab)

SMILES | EC50 [2] | entry of CHIKV pseudoparticles into the host cell [4] | EC50 [1, 21] | EC50 [7] | EC50 [8] | EC50 [9] | EC50 [10] | IC50 [14] | CC50 [15] | also measured
CCN(CC)CCCC(C)Nc1ccnc2cc(Cl)ccc12 (stereo not drawn) [Chloroquine] | 20 ± 4.7 µM | inhibited CHIKVpp entry in a dose-dependent manner |  |  |  |  |  |  |  | EC50 [1, 20]: 18 ± 11 µM; cross-resistance of MADTP-314-resistant variants [2]: No cross-resistance; reduction of CHIKV RNA ([3]; added 2 h before infection): 2 log10; protective activity in time-of-addition ([3]; added at time points later than 1 h p.i.): entirely lost its protective activity; effect on CHIKV replication in vitro [5]: dose- and time-dependent inhibitory effect; efficacy in infected patients [6]: failed to prove its efficacy
CC(=O)c1cccc(-n2nnc3c(=O)[nH]c(C)nc32)c1 [MADTP-314, 3-(3′-acetylphenyl)-5-methyl-3H-[1,2,3]triazolo[4,5-d]pyrimidin-7(6H)-one] | 283 ± 45 µM | not able to block the entry | 26 ± 11 µM | 26 ± 2 µM | 6.4 ± 0.1 µM | > 40 µM | 40 ± 5 µM | > 1000 µM | > 743 µM | fold less sensitive, MADTP-314-resistant variants vs wild-type [2]: ~ 11 fold; fold less sensitive, CHIKV LS3 vs CHIKV 899 [10]: 1.5 fold; reduction in CHIKV RNA [3]: 1.3 log10; luciferase activity (translation of replication-deficient CHIKV RNA) [11]: comparable to that in untreated control cells; CHIKV RNA synthesis (3H-uridine incorporation) [12]: did not inhibit CHIKV RNA synthesis; incorporation of 32P-CTP into CHIKV RNA by isolated RTCs [13]: did not inhibit the incorporation
CCCOc1ccc(-n2nnc3c(=O)[nH]c(C)nc32)cc1 [MADTP-346] |  |  |  |  |  |  |  | > 1000 µM |  | GT activity of VEEV nsP1 (formation of m7GMP-nsP1 complex) [16]: did not inhibit the GT activity; anti-CHIKV activity in cell culture [17]: devoid of anti-CHIKV activity
CCc1nc2c(nnn2-c2cccc(OC(C)C)c2)c(=O)[nH]1 [MADTP-372, 5-ethyl-3-(3-isopropoxyphenyl)-3H-[1,2,3]triazolo[4,5-d]-pyrimidin-7(6H)-one] | 255 ± 16 µM |  | 2.6 ± 1 µM | 1.4 ± 0.01 µM | 0.75 ± 0.4 µM | 6.8 µM | 4.9 ± 0.6 µM | > 1000 µM | > 668 µM | GT activity of VEEV nsP1 (formation of m7GMP-nsP1 complex) [16]: inhibited the GT activity of VEEV nsP1 in a concentration-dependent manner; IC50 [16]: 10 ± 0.3 µM; CC50 [18]: > 400 µM
CCc1nc2c(nnn2-c2cccc(C(C)=O)c2)c(=O)[nH]1 [MADTP-393] | 193 ± 14 µM |  | 18 ± 6.4 µM | 8.2 ± 2.2 µM | 1.4 ± 0.3 µM | 35 ± 10 µM | 15 ± 0.8 µM |  | 57 µM | 
NC(=O)c1nc(F)c[nH]c1=O [T-705, reference compound] | 34 ± 5.7 µM |  |  |  |  |  |  |  |  | EC50 [1, 20]: 20 ± 2.7 µM; cross-resistance of MADTP-314-resistant variants [2]: No cross-resistance; reduction in CHIKV RNA [3]: 1.0 log10; anti-CHIKV activity in vitro [5]: exerts anti-CHIKV activity; anti-CHIKV activity in a mouse model [19]: exerts anti-CHIKV activity
CCOC(=O)c1c(CSc2ccccc2)n(C)c2cc(Br)c(O)c(CN(C)C)c12 [arbidol] |  | inhibited CHIKVpp entry in a dose-dependent manner |  |  |  |  |  |  |  | 
